Literature values as cited in US10894006B2, “Nanoparticles for the encapsulation of compounds, preparation thereof and use of same” (CENTRO NACIONAL DE TECNOLOGÍA Y SEGURIDAD ALIMENTARIA, …, priority 2010, dated 2021).
Like-named read-outs stand apart in the source and are kept apart here.

In the case of `Nc1nc2ncc(CNc3ccc(C(=O)N[C@@H](CCC(=O)O)C(=O)O)cc3)nc2c(=O)[nH]1` [Non-encap FA, folic acid], the solubility (in slightly alkaline aqueous solution) is given as “freely soluble” and the solubility (in water) is given as “slightly soluble”.
